Assays:
[1] = target: T1, cloned human NMB-preferring receptor (BB1) (Homo sapiens, UniProt P28336); test: Receptor binding assay, cloned human NMB-preferring receptor (BB1), [125I][Tyr4]bombesin displacement; details: CHO-K1 cell membranes, 60 minutes incubation
T1 construct: expressed in transfected cells
Procedure: (§1) For binding experiments, cells were harvested by trypsinization, and stored frozen at -70° C. in Ham's F12 culture medium containing 5% DMSO until required. On the day of use, cells were thawed rapidly, diluted with an excess of culture medium, and centrifuged for 5 minutes at 2000 g. Cells were resuspended in 50 mM Tris-HCl assay buffer (pH 7.4 at 21° C., containing 0.02% BSA, 40 μg/ml bacitracin, 2 μg/mL chymostatin, 4 μg/mL leupeptin, and 2 μM phosphoramidon), counted, and polytronned (setting 5, 10 sec) before centrifuging for 10 minutes at 28,000 g. The final pellet was resuspended in assay buffer to a final cell concentration of 1.5×10^5 /mL. […] Radioactivity bound was determined using a gamma counter.

[2] = target: T2, cloned human NMB-preferring receptors expressed in CHO cells (Homo sapiens, UniProt P28336); test: Measurement of extracellular acidification (CYTOSENSOR) in CHO-NMB cells; assay type: cell-based; details: NMB-preferring receptor (BB1), antagonist 30 minutes prior to agonist, 37° C.
T2 construct: functional calcium (Fura-2) and Cytosensor acidification assays
Excerpt: The compounds of the invention have been tested in in vitro functional assays using cloned human NMB-preferring receptors expressed in CHO cells.
Protocols for functional assays:
2. Measurement of extracellular acidification (CYTOSENSOR)
This acidification rate is detected as a change in potential across a silicon light addressable sensor, during periods of media cessation (McConnell, et al., 1992).
CHO-NMB Cells seeded on polycarbonate microporous capsule cups were placed insensor chambers at 37° C. inside the microphysiometer, and maintained by a flow of nonbuffering Ham's F12 nutrient media (growth media without NaHCO3, pH 7.3-7.4) at approximately 120 μL/min. The flow was halted for 22 seconds at the end of each 2 minute repeated cycle, and the rate of acidification (μ volts/sec) measured for 15 seconds during that period.
Agonists were introduced sequentially every 28 to 30 minutes to the perfusing media, 20 seconds before flow-off periods, and removed after two rate measurements via the automatic valve-switch.
The effects of various antagonists were determined after continuous perfusion 30 minutes prior to, and throughout the application of agonists. All agents were applied at the working pH of the media.

[3] = target: T3, cloned human GRP-preferring receptor (BB2) (Homo sapiens, UniProt P30550); test: Receptor binding assay, cloned human GRP-preferring receptor (BB2), [125I][Tyr4]bombesin displacement; details: CHO-K1 cell membranes, 90 minutes incubation
T3 construct: expressed in transfected cells
Procedure: as §1, with “The compounds of the invention have been evaluated in receptor binding assays which measure the affinity of the novel compounds in a cloned human NMB-preferring receptor (BB1) assay and in a cloned human GRP-preferring receptor (BB2) assay. Protocol for Binding Assays […] For” for “For”

T3 sequence (P30550 whole entry): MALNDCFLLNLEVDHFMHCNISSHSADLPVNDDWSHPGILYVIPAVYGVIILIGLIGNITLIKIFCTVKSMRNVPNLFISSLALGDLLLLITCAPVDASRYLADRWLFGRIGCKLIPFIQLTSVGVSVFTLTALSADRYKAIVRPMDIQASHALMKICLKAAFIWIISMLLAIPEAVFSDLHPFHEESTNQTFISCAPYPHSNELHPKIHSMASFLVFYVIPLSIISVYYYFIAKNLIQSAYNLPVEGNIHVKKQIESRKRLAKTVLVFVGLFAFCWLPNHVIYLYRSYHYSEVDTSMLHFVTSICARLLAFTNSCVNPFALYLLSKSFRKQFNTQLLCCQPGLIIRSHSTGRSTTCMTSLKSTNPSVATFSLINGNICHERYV
T1 sequence (P28336 whole entry): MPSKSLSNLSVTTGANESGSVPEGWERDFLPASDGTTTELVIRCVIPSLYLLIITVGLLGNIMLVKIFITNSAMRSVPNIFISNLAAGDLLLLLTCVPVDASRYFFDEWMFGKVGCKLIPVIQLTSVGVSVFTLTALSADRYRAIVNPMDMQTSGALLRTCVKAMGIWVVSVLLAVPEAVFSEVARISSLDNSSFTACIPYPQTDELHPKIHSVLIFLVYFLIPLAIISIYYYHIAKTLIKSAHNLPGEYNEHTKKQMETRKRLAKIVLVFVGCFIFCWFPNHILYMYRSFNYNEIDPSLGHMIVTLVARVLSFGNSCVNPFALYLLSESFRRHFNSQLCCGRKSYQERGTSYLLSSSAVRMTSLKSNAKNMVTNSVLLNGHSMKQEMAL
T2 sequence (P28336 whole entry): as above

SMILES | Ki [1] [nM] | Acidification Response appKB [2] | Ki [3] [nM]
CC(C)c1cccc(C(C)C)c1NC(=O)NC(C)(Cc1c[nH]c2ccccc12)C(=O)N[C@H]1COC(C)(C)O[C@H]1c1ccccc1 (single isomer, unassigned) [Example 25] | 95 |  | 
CC(C)c1cccc(C(C)C)c1NC(=O)N[C@](C)(Cc1c[nH]c2ccccc12)C(=O)N[C@H]1CCc2ccccc21 [Example 3, 2-[3-(2,6-Diisopropyl-phenyl)-ureido]-N-indan-1-yl-3-(1H-indol-3-yl)-2-methyl-propionamide] | 130 |  | > 10000
CC(C)c1cccc(C(C)C)c1NC(=O)NC(C)(Cc1c[nH]c2ccccc12)C(=O)Nc1ccccc1 (stereo not drawn) [Example 5] | 942 |  | > 10000
CC(Cc1c[nH]c2ccccc12)(NC(=O)Nc1ccc([N+](=O)[O-])cc1)C(=O)NCC1CCCCC1 (stereo not drawn) [Example 8] | 3 |  | 450
CC(C)c1cccc(C(C)C)c1NC(=O)N[C@@](C)(Cc1c[nH]c2ccccc12)C(=O)NCC1CCCCC1 [Example 11, N-Cyclohexylmethyl-2-[3-(2,6-diisopropyl-phenyl)-ureido]-3-(1H-indol-3-yl)-2-methyl-propionamide] | 103 |  | > 10000
C[C@H](NC(=O)N[C@@](C)(Cc1c[nH]c2ccccc12)C(=O)NCC1(c2ccccn2)CCCCC1)c1ccc([N+](=O)[O-])cc1 [Example 12] | 0.7 |  | 60
C[C@@](Cc1c[nH]c2ccccc12)(NC(=O)Nc1ccc(C#N)cc1)C(=O)NCC1(c2ccccn2)CCCCC1 [Example 13] | 0.3 |  | 38
C[C@@](Cc1c[nH]c2ccccc12)(NC(=O)Nc1ccc(C(F)(F)F)cc1)C(=O)NCC1(c2ccccn2)CCCCC1 [Example 15] | 2 |  | 165
CCOC(=O)c1ccc(NC(=O)N[C@@](C)(Cc2c[nH]c3ccccc23)C(=O)NCC2(c3ccccn3)CCCCC2)cc1 [Example 16] | 3 |  | 140
CC(C)c1cccc(C(C)C)c1NC(=O)[C@H](Cc1c[nH]c2ccccc12)NC(=O)NC(c1ccccc1)C(C)(C)C (stereo partly drawn) [Example 18, (S)-N-(2,6-Diisopropyl-phenyl)-2-[3-(2,2-dimethyl-1-phenyl-propyl)-ureido]-3-(1H-indol-3-yl)-propionamide] | 25 |  | > 10000
CC(C)c1cccc(C(C)C)c1NC(=O)NC(C)(Cc1cccc[n+]1[O-])C(=O)NCC1(c2ccccn2)CCCCC1 (stereo not drawn) [Example 19, 2-[3-(2,6-Diisopropyl-phenyl)-ureido]-2-methyl-3-(1-oxy-pyridin-2-yl)-N-(1-pyridin-2-yl-cyclohexylmethyl)-propionamide] | 3 |  | 762
CC(C)c1cccc(C(C)C)c1NC(=O)NC(C)(Cc1ccccc1C(F)(F)F)C(=O)NCC1(c2ccccn2)CCCCC1 (stereo not drawn) [Example 20] | 33 |  | > 10000
CC(C)c1cccc(C(C)C)c1NC(=O)NC(C)(Cc1ccccc1[N+](=O)[O-])C(=O)NCC1(c2ccccn2)CCCCC1 (stereo not drawn) [Example 21] | 20 |  | 2550
CC(C)c1cccc(C(C)C)c1NC(=O)NC(C)(Cc1ccccn1)C(=O)NCC1(c2ccccn2)CCCCC1 (stereo not drawn) [Example 22, 2-[3-(2,6-Diisopropyl-phenyl)-ureido]-2-methyl-3-pyridin-2-yl-N-(1-pyridin-2-yl-cyclohexylmethyl)-propionamide] | 35 |  | 589
COc1ccc(C2(CNC(=O)C(C)(Cc3c[nH]c4ccccc34)NC(=O)Nc3ccc([N+](=O)[O-])cc3)CCCCC2)nc1 (stereo not drawn) [Example 27] |  |  | 1
CN(C)Cc1ccc(C2(CNC(=O)C(C)(Cc3c[nH]c4ccccc34)NC(=O)Nc3ccc([N+](=O)[O-])cc3)CCCCC2)cc1 (stereo not drawn) [Example 28] | 0.81 |  | 79
CC(Cc1c[nH]c2ccccc12)(NC(=O)Nc1ccc([N+](=O)[O-])cc1)C(=O)NCC1(c2c[nH]cn2)CCCCC1 (stereo not drawn) [Example 31] | 0.17 |  | 21

Now from value to compound:

Ki [1] [nM] | Acidification Response appKB [2] | Ki [3] [nM] | SMILES
14 | 54.3 | > 10000 | CC(C)c1cccc(C(C)C)c1NC(=O)N[C@](C)(Cc1c[nH]c2ccccc12)C(=O)N[C@H]1CCCc2ccccc21 [Example 2, 2-[3-(2,6-Diisopropyl-phenyl)-ureido]-3-(1H-indol-3-yl)-2-methyl-N-(1,2,3,4-tetrahydro-naphthalen-1-yl)-propionamide]
215 |  | > 10000 | CC(C)c1cccc(C(C)C)c1NC(=O)NC(C)(Cc1c[nH]c2ccccc12)C(=O)NCCC1CCCCC1 (stereo not drawn) [Example 4, N-(2-Cyclohexyl-ethyl)-2-[3-(2,6-diisopropyl-phenyl)-ureido]-3-(1H-indol-3-yl)-2-methyl-propionamide]
783 |  | > 10000 | CC(C)c1cccc(C(C)C)c1NC(=O)N[C@](C)(Cc1c[nH]c2ccccc12)C(=O)N[C@H]1CCCC[C@H]1c1ccccc1 [Example 6, 2-[3-(2,6-Diisopropyl-phenyl)-ureido]-3-(1H-indol-3-yl)-2-methyl-N-(2-phenyl-cyclohexyl)-propionamide]
487 |  | > 10000 | CC(C)c1cccc(C(C)C)c1NC(=O)NC(Cc1c[nH]c2ccccc12)C(=O)N(C)CC1CCCCC1 (stereo not drawn) [Example 7, N-Cyclohexylmethyl-2-[3-(2,6-diisopropyl-phenyl)-ureido]-3-(1H-indol-3-yl)-N-methyl-propionamide]
3.3 |  | 1130 | CC(Cc1c[nH]c2ccccc12)(NC(=O)Nc1ccc([N+](=O)[O-])cc1)C(=O)NCC1(O)CCCCC1 (stereo not drawn) [Example 9]
758 |  | 1460 | CC(C)c1cccc(C(C)C)c1NC(=O)N(C)C(Cc1c[nH]c2ccccc12)C(=O)NCC1CCCCC1 (stereo not drawn) [Example 10, N-Cyclohexylmethyl-2-[3-(2,6-diisopropyl-phenyl)-1-methyl-ureido]-3-(1H-indol-3-yl)-propionamide]
3310 |  | 2940 | COc1cccc(OC)c1NC(=O)NC(C)(Cc1c[nH]c2ccccc12)C(=O)NCC1CCCCC1 (stereo not drawn) [Example 17, N-Cyclohexylmethyl-2-[3-(2,6-dimethoxy-phenyl)ureido]-3-(1H-indol-3-yl)-2-methyl-propionamide]
16 |  | 5360 | CC(C)c1cccc(C(C)C)c1NC(=O)NC(Cc1c[nH]cn1)C(=O)NCC1(c2ccccn2)CCCCC1 (stereo not drawn) [Example 23]
413 |  | > 10000 | CC(C)c1cccc(C(C)C)c1N(C)C(=O)NC(C)(Cc1c[nH]c2ccccc12)C(=O)NCC1CCCCC1 (stereo not drawn) [Example 24]
0.25 |  | 29 | Cc1nc(C2(CNC(=O)C(C)(Cc3c[nH]c4ccccc34)NC(=O)Nc3ccc([N+](=O)[O-])cc3)CCCCC2)cs1 (stereo not drawn) [Example 26]
10 |  | > 10000 | CC(Cc1c[nH]c2ccccc12)(NC(=O)Nc1ccc([N+](=O)[O-])cc1)C(=O)NCC(c1ccccc1)N1CCCCC1 (stereo not drawn) [Example 29]
0.17 |  | 20 | COc1ccc(C2(CNC(=O)C(C)(Cc3c[nH]c4ccccc34)NC(=O)Nc3ccc(C#N)cc3)CCCCC2)nc1 (stereo not drawn) [Example 32]

— US6194437A (Warner-Lambert Company, priority 1999, dated 2001)
